Patent US9657059B2, “Immune system modulators” (Canimguide Therapeutics AB, priority 2013, dated 2017)

Columns and labels:
immune cells = assay: Binding of albumin fragments to immune cells on the Artificial Cell Surface column (ACS), MALDI-TOF; set-up: species or system human
Description: The existence of albumin sequences having neo-structures that bind to immune cells was identified using a human ex vivo model based on affinity chromatography over an “Artificial Cell Surface Column” (ACS). The effect of different albumin fragments on IL-2 induced proliferation of human immune cells (PBMCs) was analyzed in the ACS system (see Example 9). Briefly, PBMCs were cultured for seven days in the presence of IL-2 and the various synthetically prepared albumin fragments. Proliferation was measured as incorporation of ^3H thymidine during the final 18 hours.
Some of these fragments can have immunomodulatory activity similar to P3028, can bind to immune cells similar to P3028, and/or can bind to immunomodulatory antibodies that recognized P3028. […] Table 1 provides a listing of trypsin-generated fragments of albumin, which bind to immune cells in the ACS system, as detected by MALDI-TOF analysis.
[…] Again, the immune cell binding peptides were identified by comparing adsorbed and unadsorbed peptide solutions using the MALDI TOF technique.

[1] = system: Artificial Cell Surface (ACS): biotinylated cell surface proteins of PBMCs; assay: Adsorption of enzyme-fragmented dHSA peptides by artificial cell surface (ACS) column, MALDI-TOF; format: binding, human
Description: An artificial cell surface (ACS) was prepared by selectively biotinylating cell surface structures of PBMCs and after lysing the cells binding the biotinylated proteins to streptavidin columns (see Example 17 for further description of the ACS). The mixture of peptides obtained after trypsination was adsorbed by ACS and the binding peptides were identified by comparing adsorbed and unabsorbed peptide solutions using the MALDI TOF ms technique. Based on their degree of binding and their spatial relation to previously identified immunoregulatory structures, four new peptides were selected to be synthesized and investigated for their immunoregulatory activity, primarily the effect on the proliferative response to IL-2.
First, biotinylated cell surface proteins were prepared. Buffy coats generated from 450 ml blood each were collected from 4 healthy donors. Erythrocytes were removed by sedimentation on 2% dextran T500 solution (Amersham Pharmacia Biotech AB, Uppsala Sweden) in 0.9% NaCl. Mononuclear cells (PBMC) were then isolated by Ficoll-Paque Plus (GE Healthcare BioscienceAB Sweden) density gradient centrifugation. The PBMCs were then suspended in phosphate buffered saline (PBS) containing Ca and Mg (GIBCO) at a concentration of 10×10^6/ml. EZ Link Sulfo-NHS-biotin (Pierce USA) was added at a final concentration of 0.2 mg/ml and the mixture incubated on a shaker at room temperature for 10 min. Excess biotin was then removed by washing the PBMC in PBS. Biotinylated PBMC were then lysed by adding 1.0 ml ice-cold lysing buffer (50 mM Tris-HCL, pH 7.5, with 0.15 MNaCl, 5 mM MgCl2 containing 100 mM Octyl glucoside and 1 mM Phenylmethylsulfonyl fluoride) per 2×10^7 pelleted cells with gentle shaking, then incubated for 30 min. on ice. Debris was removed by centrifugation at 5000×g at 4° C. for 10 min and the supernatants were collected and pooled from all four donors. The lysate was then stored at −70° C. in polypropylene plastic tubes.
This amount of lysate corresponds to 36×10^7 mononuclear cells. It was added to a 1 ml Hitrap Streptavidin HP affinity column (Amersham Biosciences). To block possible remaining free biotin, 5 ml of 0.1 M glycine (Sigma) was added to the column. Unsaturated streptavidin on the column was then reacted with 150 ug biotin (Sigma) in binding buffer. The column was carefully washed with PBS and stored in PBS with 0.1% NaN3 at 4° C. until use.
27 ml biotinylated cell lysate in binding buffer (corresponding to 54×10^7 mononuclear cells) was added to 1.5 ml washed Streptavidin Sepharose HP (Amersham Biosciences). To block possible remaining free biotin, 25 ml of 0.1 M glycine (Sigma) was added to the Streptavidin Sepharose. Unsaturated streptavidin was then reacted with 225 ug biotin (Sigma) in binding buffer. The Streptavidin Sepharose was carefully washed in PBS. One ml of the biotinylated cell lysate coupled Streptavidin Sepharose was then packed in an empty column (Tricorn Empty High Performance Column, Amersham Bioscience) and washed with phosphate buffered saline (PBS) containing Ca^2+ and Mg^2+ (GIBCO).
Digestion with trypsin or ASP-N was performed as follows. Freeze dried dHSA (0.5 mg) was reconstituted in 25 mM NH4HCO3, pH 8, containing […] sequencing grade modified trypsin (Promega Corporation, WI) or […] Endoproteinase ASP-N(Sigma) and incubated at 37° C. overnight. To remove unfragmented albumin and enzyme, the sample was ultra filtered through an Amicon Ultra 4 (mw cut-off of 5000) or a Centriplus (mw cut-off 10000) centrifugal filter (Millipore AB, Solna, Sweden). The filtrate, containing fragmented dHSA without enzymes, was collected and diluted with PBS with Ca and Mg (GIBCO).
dHSA was trypsinated, and the mixture of peptides obtained after trypsination was adsorbed by ACS. Two ml of enzyme-fragmented dHSA in PBS, corresponding to a total of 0.2 mg protein, was passaged over the ACS column. […]

[2] = trypsin-generated albumin fragments, MALDI-TOF
[3] = trypsin-generated albumin fragments
[4] = Asp-N-generated fragments of denatured human serum albumin, MALDI TOF
[5] = Asp-N-generated albumin fragments

Substance	Percent Absorbed (immune cells; [2]) [%]	Percent Absorbed [1, 3] [%]	Percent Absorbed (immune cells; [4]) [%]	Percent Absorbed [1, 5] [%]
201 (LKECCEKPLLEK; listed as Homo sapiens) [compound 201]	36	36		
205 (AAFTECCQAADK; listed as Homo sapiens) [compound 205]	29	29		
194 (KYLYEIAR; listed as Homo sapiens) [compound 194]	71	71		
196 (VFDEFKPLVEEPQNLIK; listed as Homo sapiens) [compound 196]	60	60		
219 (DRVTKCCTESLVNRRPCFSALEV; listed as Homo sapiens) [compound 219]			87	87
226 (LAKYICENQDSISSKLKECCEKPLLEKHCIAEVEN; listed as Homo sapiens) [compound 226]			100	100
195 (KVPQVSTPTLVEVSR; listed as Homo sapiens) [compound 195]	64	64		
211 (QEPERNECFLQHK; listed as Homo sapiens) [compound 211]	18	18		
208 (AVMDDFAAFVEK; listed as Homo sapiens) [compound 208]	23	23		
213 (FKDLGEENFK; listed as Homo sapiens) [compound 213]	8	8		
198 (RPCFSALEVDETYVPK; listed as Homo sapiens) [compound 198]	42	42		
229 (RVTKCCTESLVNRRPCFSALEVDETYVPKEFNAETFTFHA; listed as Homo sapiens) [compound 229]			100	100
209 (NECFLQHK; listed as Homo sapiens) [compound 209]	22	77		
202 (LCTVATLR; listed as Homo sapiens) [compound 202]	35	35		
222 (DKLCTVATLRETYGEM; listed as Homo sapiens) [compound 222]			65	65
228 (LGEENFKALVLIAFAQYLQQCPFEDHVKLVNEVTEFAKTCVA; listed as Homo sapiens) [compound 228]			100	100
217 (DHVKLVNEVTEFAKTCVA; listed as Homo sapiens) [compound 217]			100	100
215 (LDELRDEGK; listed as Homo sapiens) [compound 215]	2	2		
199 (FQNALLVR; listed as Homo sapiens) [compound 199]	41	41		

Substance	Percent Absorbed (immune cells; [2]) [%]	Percent Absorbed [1, 3] [%]	Percent Absorbed (immune cells; [4]) [%]	Percent Absorbed [1, 5] [%]
200 (SLHTLFGDK; listed as Homo sapiens) [compound 200]	36	36		
203 (YLYEIAR; listed as Homo sapiens) [compound 203]	34	34		
207 (QEPERNECFLQHK; listed as Homo sapiens) [compound 207]	25	25		
225 (ICTLSEKERQIKKQTALVELVKHKPKATKEQLKAVM; listed as Homo sapiens) [compound 225]			100	100
230 (YLSVVLNQLCVLHEKTPVSDRVTKCCCTESLVNRRPFSALEV; listed as Homo sapiens) [compound 230]			37	37
212 (VHTECCHGDLLECADDR; listed as Homo sapiens) [compound 212]	13	13		
223 (YSVVLLLRLAKTYETTLEKCCAAADPHECYAKVF; listed as Homo sapiens) [compound 223]			100	100
218 (DDKETCFAEEGKKLVAASQAALGL; listed as Homo sapiens) [compound 218]			100	100
220 (DETYVPKEFNAETFTHA; listed as Homo sapiens) [compound 220]			86	86
216 (DDNPNLPR; listed as Homo sapiens) [compound 216]	1	1		
221 (DSISSKLKECCEKPLLEKSHCIAEVEN; listed as Homo sapiens) [compound 221]			65	65
197 (VPQVSTPTLVEVSR; listed as Homo sapiens) [compound 197]	59	59		
210 (QNCELFEQLGEYK; listed as Homo sapiens) [compound 210]	20	20		
206 (CCTESLVNR; listed as Homo sapiens) [compound 206]	26	26		
224 (KLCTVATLRETYGEMADCCAKQEPERNECFLQHK; listed as Homo sapiens) [compound 224]			100	100
227 (VFLGMFLYEYARRHPDYSVVLLLRLAKTYETTLEKCCAAA; listed as Homo sapiens) [compound 227]			100	100
214 (YICENQDSISSK; listed as Homo sapiens) [compound 214]	3	3		
204 (CCAAADPHECYAK; listed as Homo sapiens) [compound 204]	32	32		
